Source: patent US8686184B2, “Neprilysin inhibitors” (Theravance, Inc., priority 2011, dated 2014)

These molecules were tested against T1, human neprilysin (EC 3.4.24.11; NEP) (Homo sapiens, UniProt P08473) (assay: In vitro enzyme inhibition assay at human NEP (fluorogenic peptide substrate)). Conditions: recombinant human NEP; 37° C.; substrate Mca-D-Arg-Arg-Leu-Dap-(Dnp)-OH 10 μM; values given as ranges; read-out: pKi values at human NEP (converted).
T1 construct: purchased R&D Systems, Minneapolis, Minn; 1182-ZN
Type: biochemical
Protocol: In vitro Assays for the Quantitation of Inhibitor Potencies at Human and Rat NEP, and Human ACE
The inhibitory activities of compounds at human and rat neprilysin (EC 3.4.24.11; NEP) and human angiotensin converting enzyme (ACE) were determined using in vitro assays as described below.
Recombinant human NEP and recombinant human ACE were obtained commercially (R&D Systems, Minneapolis, Minn., catalog numbers 1182-ZN and 929-ZN, respectively). The fluorogenic peptide substrate Mca-D-Arg-Arg-Leu-Dap-(Dnp)-OH (Medeiros et al. (1997) Braz. J. Med. Biol. Res. 30:1157-62; Anaspec, San Jose, Calif.) and Abz-Phe-Arg-Lys(Dnp)-Pro-OH (Araujo et al. (2000) Biochemistry 39:8519-8525; Bachem, Torrance, Calif.) were used in the NEP and ACE assays respectively.
The assays were performed in 384-well white opaque plates at 37° C. using the fluorogenic peptide substrates at a concentration of 10 μM in Assay Buffer (NEP: 50 mM HEPES, pH 7.5, 100 mM NaCl, 0.01% polyethylene glycol sorbitan monolaurate (Tween-20), 10 μM ZnSO4; ACE: 50 mM HEPES, pH 7.5, 100 mM NaCl, 0.01% Tween-20, 1 μM ZnSO4).
Test compounds were assayed over the range of concentrations from 10 μM to 20 pM. Test compounds were added to the enzymes and incubated for 30 minute at 37° C. prior to initiating the reaction by the addition of substrate. Reactions were terminated after 20 minutes of incubation at 37° C. by the addition of glacial acetic acid to a final concentration of 3.6% (v/v).
Plates were read on a fluorometer with excitation and emission wavelengths set to 320 nm and 405 nm, respectively Inhibition constants were obtained by nonlinear regression of the data using the equation (GraphPad Software, Inc., San Diego, Calif.): v=v0/[1+(I/K′)] where v is the reaction rate, v0 is the uninhibited reaction rate, I is the inhibitor concentration and K′ is the apparent inhibition constant.
Compounds of the invention were tested in this assay and found to have pKi values at human NEP as follows.

T1 sequence (P08473 52-750 limits assumed): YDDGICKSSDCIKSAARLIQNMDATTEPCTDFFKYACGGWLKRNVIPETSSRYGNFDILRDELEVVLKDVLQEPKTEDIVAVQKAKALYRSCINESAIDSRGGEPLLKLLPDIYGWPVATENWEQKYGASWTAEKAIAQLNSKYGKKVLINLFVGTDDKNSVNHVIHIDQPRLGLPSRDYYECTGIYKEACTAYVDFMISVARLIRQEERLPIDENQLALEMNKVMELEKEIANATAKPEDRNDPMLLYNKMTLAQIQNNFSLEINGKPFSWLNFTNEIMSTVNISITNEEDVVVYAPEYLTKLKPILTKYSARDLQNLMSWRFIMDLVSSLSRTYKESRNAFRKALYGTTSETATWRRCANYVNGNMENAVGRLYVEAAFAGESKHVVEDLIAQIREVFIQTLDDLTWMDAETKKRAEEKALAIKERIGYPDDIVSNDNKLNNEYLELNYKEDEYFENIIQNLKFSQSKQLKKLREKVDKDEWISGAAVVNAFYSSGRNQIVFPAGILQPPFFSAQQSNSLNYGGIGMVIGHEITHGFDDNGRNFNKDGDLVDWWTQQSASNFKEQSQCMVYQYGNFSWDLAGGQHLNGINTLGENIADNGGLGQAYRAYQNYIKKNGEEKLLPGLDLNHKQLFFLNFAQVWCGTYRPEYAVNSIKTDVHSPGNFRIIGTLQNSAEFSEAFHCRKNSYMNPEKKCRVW

Compared with `O=C(CCCc1cc(F)ccc1C(=O)O)N[C@H](Cc1ccccc1Cl)[C@@H](O)C(=O)O` [Example 2-1, 2-{3-[(1R,2R)-2-Carboxy-1-(2-chlorobenzyl)-2-hydroxy-ethylcarbamoyl]-propyl}-4-fluoro-benzoic acid], `O=C(N[C@H](Cc1ccccc1Cl)[C@@H](O)C(=O)O)c1cc(F)cc(-c2ccccc2C(=O)O)c1` [Example 6-1, 5′-[(1R,2R)-2-Carboxy-1-(2-chlorobenzyl)-2-hydroxy-ethylcarbamoyl]-3′-fluoro-biphenyl-2-carboxylic acid] is higher in Ki: no more than 1 nM for the first, 1.26 to 10 nM for the second.

Compared with `O=C(N[C@H](Cc1ccccc1Cl)[C@@H](O)C(=O)O)c1cc(F)c(F)c(-c2ccccc2C(=O)O)c1` [Example 3, 5′-[(1R,2R)-2-Carboxy-1-(2-chlorobenzyl)-2-hydroxy-ethylcarbamoyl]-2′,3′-difluoro-biphenyl-2-carb oxylic Acid], `O=C(N[C@H](Cc1ccccc1Cl)[C@@H](O)C(=O)O)c1cc(Cl)c(F)c(-c2ccccc2C(=O)O)c1` [Example 6-4, 5′-[(1R,2R)-2-Carboxy-1-(2-chlorobenzyl)-2-hydroxy-ethylcarbamoyl]-3′-chloro-2′-fluoro-biphenyl-2-carboxylic acid] is higher in Ki: no more than 1 nM for the first, 1.26 to 10 nM for the second.

Compared with `CCc1ccc(C(=O)N[C@H](Cc2ccccc2Cl)[C@@H](O)C(=O)O)cc1-n1c(=O)[nH]c2sc(C)cc2c1=O` [Example 4, (2R,3R)-4-(2-Chlorophenyl)-3-[4-ethyl-3-(6-methyl-2,4-dioxo-1,4-dihydro-2H-thieno[2,3-d]pyrimidin-3-yl)-benzoylamino]-2-hydroxy-butyric Acid], `CCc1ccc(C(=O)N[C@H](Cc2ccccc2Cl)[C@@H](O)C(=O)O)cc1N1N=C(C)CC1=O` [Example 6-17, (2R,3R)-4-(2-Chlorophenyl)-3-[4-ethyl-3-(3-methyl-5-oxo-4,5-dihydro-pyrazol-1-yl)-benzoylamino]-2-hydroxy-butyric acid] is higher in Ki: no more than 1 nM for the first, 1.26 to 10 nM for the second.

`O=C(N[C@H](Cc1ccccc1Cl)[C@@H](O)C(=O)O)c1cc(Cl)cc(-c2ccccc2C(=O)O)c1` [Example 6-2, 5′-[(1R,2R)-2-Carboxy-1-(2-chlorobenzyl)-2-hydroxy-ethylcarbamoyl]-3′-chloro-biphenyl-2-carboxylic acid] and `O=C(N[C@H](Cc1ccccc1Cl)[C@@H](O)C(=O)O)c1ccc(Cl)c(-c2ccccc2C(=O)O)c1` [Example 6-3, 5′-[(1R,2R)-2-Carboxy-1-(2-chlorobenzyl)-2-hydroxy-ethylcarbamoyl]-2′-chloro-biphenyl-2-carboxylic acid] cannot be ordered by Ki: no more than 1 nM for the first, no more than 1 nM for the second.

First: Cc1ccc(C(=O)N[C@H](Cc2ccccc2Cl)[C@H](O)C(=O)O)cc1-c1ccccc1C(=O)O [Example 6-5, 5′-[(1R,2S)-2-Carboxy-1-(2-chlorobenzyl)-2-hydroxy-ethylcarbamoyl]-2′-methyl-biphenyl-2-carboxylic acid]
Second: Cc1ccc(C(=O)N[C@H](Cc2ccccc2Cl)[C@@H](O)C(=O)O)cc1-c1ccccc1C(=O)O [Example 6-6, 5′-[(1R,2R)-2-Carboxy-1-(2-chlorobenzyl)-2-hydroxy-ethylcarbamoyl]-2′-methyl-biphenyl-2-carboxylic acid]
The Ki of the first is higher: 12.6 to 100 nM for the first, no more than 1 nM for the second.

Compared with `COc1ccc(C(=O)N[C@H](Cc2ccccc2Cl)[C@@H](O)C(=O)O)cc1-c1ccccc1C(=O)O` [Example 6-7, 5′-[(1R,2R)-2-Carboxy-1-(2-chlorobenzyl)-2-hydroxy-ethylcarbamoyl]-2′-methoxy-biphenyl-2-carboxylic acid], `Cc1cc(C(=O)N[C@H](Cc2ccccc2Cl)[C@@H](O)C(=O)O)ccc1-c1ccccc1C(=O)O` [Example 6-8, 4′-[(1R,2R)-2-Carboxy-1-(2-chlorobenzyl)-2-hydroxy-ethylcarbamoyl]-2′-methyl-biphenyl-2-carboxylic acid] is lower in Ki: 12.6 to 100 nM for the first, 1.26 to 10 nM for the second.

`O=C(N[C@H](Cc1ccccc1Cl)[C@@H](O)C(=O)O)c1ccc(-c2ccccc2C(=O)O)c(F)c1` [Example 6-9, 4′-[(1R,2R)-2-Carboxy-1-(2-chlorobenzyl)-2-hydroxy-ethylcarbamoyl]-2′-fluoro-biphenyl-2-carboxylic acid] and `CC1=NN(c2ccc(C(=O)N[C@H](Cc3ccccc3Cl)[C@H](O)C(=O)O)cc2)C(=O)C1` [Example 6-15, (2S,3R)-4-(2-Chlorophenyl)-2-hydroxy-3-[4-(3-methyl-5-oxo-4,5-dihydro-pyrazol-1-yl)-benzoylamino]-butyric acid] fall in the same range of Ki: 1.26 to 10 nM for the first, 1.26 to 10 nM for the second.

`O=C(N[C@H](Cc1ccccc1Cl)[C@@H](O)C(=O)O)c1ccc(N2N=C(C(F)(F)F)CC2=O)cc1` [Example 6-14, (2R,3R)-4-(2-Chlorophenyl)-2-hydroxy-3-[4-(5-oxo-3-trifluoromethyl-4,5-dihydro-pyrazol-1-yl)-benzoylamino]-butyric acid] and `CC1=NN(Cc2ccc(C(=O)N[C@H](Cc3ccccc3Cl)[C@@H](O)C(=O)O)cc2)C(=O)C1` [Example 6-19, (2R,3R)-4-(2-Chlorophenyl)-2-hydroxy-3-[4-(3-methyl-5-oxo-4,5-dihydro-pyrazol-1-ylmethyl)-benzoylamino]-butyric acid] fall in the same range of Ki: 12.6 to 100 nM for the first, 12.6 to 100 nM for the second.

`Cc1nn(-c2ccc(C(=O)N[C@H](Cc3ccccc3)[C@@H](O)C(=O)O)cc2)c(C)c1Cl` [Example 10-1, (2R,3R)-3-[4-(4-Chloro-3,5-dimethyl-pyrazol-1-yl)-benzoylamino]-2-hydroxy-4-phenyl-butyric acid] and `Cc1cc(C)n(-c2ccc(C(=O)N[C@H](Cc3ccccc3)[C@@H](O)C(=O)O)cc2)n1` [Example 10-4, (2R,3R)-3-[4-(3,5-Dimethyl-pyrazol-1-yl)-benzoylamino]-2-hydroxy-4-phenyl-butyric acid] fall in the same range of Ki: 12.6 to 100 nM for the first, 12.6 to 100 nM for the second.

`O=C(N[C@H](Cc1ccccc1)[C@@H](O)C(=O)O)c1ccc(-n2cccn2)cc1` [Example 10-2, (2R,3R)-2-Hydroxy-4-phenyl-3-(4-pyrazol-1-yl-benzoylamino)-butyric acid] and `O=C(N[C@H](Cc1ccccc1)[C@@H](O)C(=O)O)c1ccc(-n2ccc(C(F)(F)F)n2)cc1` [Example 10-3, (2R,3R)-2-Hydroxy-4-phenyl-3-[4-(3-trifluoromethyl-pyrazol-1-yl)-benzoylamino]-butyric acid] fall in the same range of Ki: 12.6 to 100 nM for the first, 12.6 to 100 nM for the second.

`Cc1cc(C)n(-c2cccc(C(=O)N[C@H](Cc3ccccc3)[C@@H](O)C(=O)O)c2)n1` [Example 10-5, (2R,3R)-3-[3-(3,5-Dimethyl-pyrazol-1-yl)-benzoylamino]-2-hydroxy-4-phenyl-butyric acid] and `Cc1cc(C)n(-c2cc(C(=O)N[C@H](Cc3ccccc3)[C@@H](O)C(=O)O)ccc2F)n1` [Example 10-6, (2R,3R)-3-[3-(3,5-Dimethylpyrazol-1-yl)-4-fluorobenzoylamino]-2-hydroxy-4-phenyl-butyric acid] fall in the same range of Ki: 12.6 to 100 nM for the first, 12.6 to 100 nM for the second.

`Cc1cc(C)n(-c2cc(C(=O)N[C@H](Cc3ccccc3)[C@@H](O)C(=O)O)ccc2C)n1` [Example 10-7, (2R,3R)-3-[3-(3,5-Dimethylpyrazol-1-yl)-4-methylbenzoylamino]-2-hydroxy-4-phenyl-butyric acid] and `Cc1ccc(C(=O)N[C@H](Cc2ccccc2)[C@@H](O)C(=O)O)cc1-n1ccc(C(=O)O)n1` [Example 10-8, 1-[5-((1R,2R)-1-Benzyl-2-carboxy-2-hydroxyethylcarbamoyl)-2-methyl-phenyl]-1H-pyrazole-3-carboxylic acid] fall in the same range of Ki: 12.6 to 100 nM for the first, 12.6 to 100 nM for the second.
